The test system of assay [1] is adjuvant arthritic rats. Nature of the assay: adjuvant arthritis test, evaluation of paw volume of the non-injected hind paw. It counts as in vivo, female Wistar, Lewis rats. The following applies: for inhibition at 50 mg/kg: Acetaminophen 50 mg/kg/day alone; for inhibition at 200 mg/kg: Acetaminophen 200 mg/kg/day alone; for inhibition at 800 mg/kg: Acetaminophen 800 mg/kg/day alone; for inhibition at 75 mg/kg: Aspirin 75 mg/kg/day alone; for inhibition at 150 mg/kg: Aspirin 150 mg/kg/day alone; for inhibition at 300 mg/kg: Aspirin 300 mg/kg/day alone. The source says: (§1) The efficacy of the novel combination of this invention in inhibiting inflammation and osteogenic degeneration is particularly seen in the adjuvant arthritis test. […] The adjuvant arthritis test, a test in which adjuvant arthritis which results both in inflammation and osteogenic changes is induced by Mycobacterium butvricum and in which the effect of the test compounds on each effect can be Determined, is considered to be .most useful for evaluation of compounds which may be suitable for the treatment of rheumatoid arthritis and other arthritic diseases. The test procedure, in which the effect on inflammation is determined by paw volume changes and the effect on osteogenic changes is determined by microscopic observation, is described by Wong et al, in J. Pharmacol.Exp.Ther. 185, 127-138, 1973, and is employed in the present determination of the potentiation of the antiarthritic properties of 5-aroyl-l-loweralkyl-pyrrole-2-acetic acid derivatives by aspirin or acetaminophen.
(§2) Briefly, in this procedure, adjuvant arthritis is induced in female Wistar, Lewis rats (Charles River Breeding Laboratories. Inc., Wiimington, Mass.) weighing 160-190 gm by a single subcutaneous injection of 0.75 mg Mycobacterium butyricum (Difco) into the left hind paw. The non-injected hind paw remains a normal size for the first seven days. Swelling begins to appear in the non-injected paw of the first rats on Day 8. Using the paw volume determination technique (a technique in which rat paws are dippedin mercury to the hairline and the volume of displacement determined by a modified Van Arman mercury displacement method as described in the aforementioned paper of Wong et al), the time progress curve of volume changes in the non-injected (contralateral) paw is followed. […] The mean onset time for 100 rats is found to be 11.6 days with a standard deviation of 1.9 days and the frequency of onset time values distributed normally between Days 8 and 19. Thus, determinations of antiarthritic activity are made in the period Day 11 to Day 28.
(§3) For determination of anti-inflammatory properties two different evaluations are made: (a) the evaluation of paw volume during the Phase II and Phase III periods and, (b) the evaluation of osteogenic (bone) degenration during the Phase IV period.
For evaluation of paw volume, adjuvant arthritic rats with early but significant signs of arthritis in the contralateral paw are selected on Day 11 and randomly assigned to the various groups of 10 animals in each group. All test -animals are dosed-daily (per os) with the test compound, preferably as sodium salt, or in saline for 17 days (Days 11 to 27 inclusive). Control animals are dosed with an equivalent volume of saline. The paw volumes of the non-injected paws are determined initially on Day 11 and again on Days 15, 18, 22, 25, and 28. The paw volumes are then compared with normal paw volumes of adjuvant arthitic rats previously determined from a reference curve relating normal paw volume to body weight. The volume of each individual rat which is greater than the normal volume is utilized in the analysis of the data. Values for drug treated animals are expressed as a percent inhibition of the paw volume change relative to the mean value for saline controls. Data is evaluated statistically and ED50 values with 95 percent confidence limits are calculated. The method for statistical analysis is described in detail in the aforementioned paper of Wong et al. The term "ED50" refers to the dose of drug required to produce 50 percent antagonism of the paw volume changes observed in the saline treated adjuvant arthritis controls. Suppression of paw volume changes reflects anti-inflammatory and antiarthritic activity of a test drug.

The test system of assay [2] is adjuvant arthritic rats. Briefly: adjuvant arthritis test, evaluation of bone degeneration (osteogenic changes) in the non-injected hind paw. In kind it is in vivo, female Wistar, Lewis rats. The following applies: for ED50: drug alone, suppression of osteogenic changes, data from several experiments pooled, read-out: ED50 and 95 percent C.L.
Source text: as §1, §2, §3
For evaluation of bone degenerations, normal and adjuvant arthritic rats are sacrificed under C02, after the paw volume measurements have been completed on Day 28. The hind legs are removed above the knees and skinned and the soft tissues dissected away with care to avoid injury to bone and articular structures. The leg bones are then immersed in 2 percent potassium hydroxide solution for approximately four to five days until the remaining soft tissues becomes properly macerated and/or transparent, and the bones are fully visible. The leg bones are stained with Alizarin Red (0.01 percent in 2 percent KOH) for eight hours, and then processed through increasing concentrations of glycerol in water (20, 40, 60, 80 and 100 percent) for purposes of clearing the tissues for microscopic observation. The distal end of the tibiae, the tarsals, metatarsals, phalanges, and sesamoids are evaluated under a Stereozoom Microscope (a special type of dissecting microscope, product of Bausch and Lomb).
Osteogenic changes for each bone (in 31 bone categories) in the non-injected hind paw are graded on a scale of from 0 to 10 (increasing numerical value corresponding to increasing severity of bone degeneration). A total bone degeneration score is obtained (maximum score/paw = 310 points) and then expressed as a percent score. The mean percent score (95 percent confidence limits) for saline control groups from 26 experiments (184 animals) is found to be 53.4 (50.9-55.9). Percent score values for drug treated animals are expressed as a percent inhibition relative to the mean for the saline control group. Data is evaluated statistically and ED50 values with 95 percent confidence limits are calculated.

Setting [3] is: Rattus norvegicus, 672 h, Table IX, Day 28, read-out: Percent Inhibition ± S.E. (Day 28).
Where [4] appears, read: Rattus norvegicus, read-out: Percent Inhibition of Paw Volume ± S.E.
The mark [5] stands for this setting: Rattus norvegicus, 672 h, Day 28, read-out: Percent Inhibition ± S.E. (Day 28).
The mark [6] stands for this setting: Rattus norvegicus, 672 h, Table VIII, Day 28, read-out: Percent Inhibition ± S.E. (Day 28).

The source of these data is EP0006845A1, “Pharmaceutical composition comprising a 5-aroyl-1-C1-5 alkyl-pyrrole-2-acetic acid compound and acetaminophen or acetylsalicylic acid” (McNeilab, Inc., priority 1978, dated 1980).

A word on the ED50: it is the midpoint of the dose-response relation. In the case of `Cc1cc(CC(=O)O)n(C)c1C(=O)c1ccc(Cl)cc1` [1,4-dimethyl-5-p-chlorobenzoyl-pyrrole-2-acetic acid], the ED50 amounted to 0.4 mg/kg in assay [1] (Rattus norvegicus, 672 h, Table VII, ED50 of the pyrrole compound without acetaminophen, Day 28, read-out: ED50) and 0.728 mg/kg in assay [1] (Rattus norvegicus, 672 h, Table VIII, ED50 of the pyrrole compound without Aspirin, Day 28, read-out: ED50). Also, the inhibition at 0.11 mg/kg/day in assay [1] (Rattus norvegicus, 672 h, Table VII, pyrrole compound 0.11 mg/kg/day alone, Day 28, read-out: Percent Inhibition ± S.E. (Day 28)) is 27.4 ± 10.1%. In addition, the inhibition at 0.33 mg/kg/day in assay [1] (Rattus norvegicus, 672 h, Table VII, pyrrole compound 0.33 mg/kg/day alone, Day 28, read-out: Percent Inhibition ± S.E. (Day 28)) is 45 ± 6%. In addition, in assay [1] (Rattus norvegicus, 672 h, Table VII, pyrrole compound 1.0 mg/kg/day alone, Day 28, read-out: Percent Inhibition ± S.E. (Day 28)), the inhibition at 1 mg/kg/day worked out at 68 ± 7.8%. The inhibition at 0.125 mg/kg/day in assay [1] (Rattus norvegicus, 672 h, Table VIII, pyrrole compound 0.125 mg/kg/day alone, Day 28, read-out: Percent Inhibition ± S.E. (Day 28)) turned out to be 17.5 ± 7.5%. Moreover, the inhibition at 0.5 mg/kg/day in assay [1] (Rattus norvegicus, 672 h, Table VIII, pyrrole compound 0.5 mg/kg/day alone, Day 28, read-out: Percent Inhibition ± S.E. (Day 28)) came to 43.8 ± 11.8%. Further, the inhibition at 2 mg/kg/day in assay [1] (Rattus norvegicus, 672 h, Table VIII, pyrrole compound 2.0 mg/kg/day alone, Day 28, read-out: Percent Inhibition ± S.E. (Day 28)) is 68.2 ± 5.3%.
Take `Cn1c(CC(=O)O)cc(Cl)c1C(=O)c1ccc(Cl)cc1` [4-chloro-5-p-chlorobenzoyl-1-nethyl-pyrrole-2-acetic acid]: the ED50 in assay [1] (Rattus norvegicus, 672 h, Table IX, ED50 of the pyrrole compound without acetaminophen, Day 28, read-out: ED50) was 0.054 mg/kg. In assay [1] (Rattus norvegicus, 672 h, Table IX, pyrrole compound 0.02 mg/kg/day alone, Day 28, read-out: Percent Inhibition ± S.E. (Day 28)), the inhibition at 0.02 mg/kg/day came to 18.6 ± 11.7%. Besides, the inhibition at 0.06 mg/kg/day in assay [1] (Rattus norvegicus, 672 h, Table IX, pyrrole compound 0.06 mg/kg/day alone, Day 28, read-out: Percent Inhibition ± S.E. (Day 28)) came to 61.3 ± 5.3%. Moreover, the inhibition at 0.18 mg/kg/day in assay [1] (Rattus norvegicus, 672 h, Table IX, pyrrole compound 0.18 mg/kg/day alone, Day 28, read-out: Percent Inhibition ± S.E. (Day 28)) amounted to 78.9 ± 8.7%.
For the compound `CC(=O)Nc1ccc(O)cc1` [Acetaminophen, acetaminophen], the inhibition at 50 mg/kg worked out at 7.6 ± 6.1% in assay [1] (setting [3]); 0% in assay [1] (setting [4]); 0% in assay [2] (Rattus norvegicus, Acetaminophen 50 mg/kg/day alone, read-out: Percent Inhibition of Bone Degeneration ± S.E.). The inhibition at 200 mg/kg in assay [1] (setting [3]) amounted to 29 ± 12.8%; in assay [1] (setting [4]), 27.2 ± 15.5%; in assay [2] (Rattus norvegicus, Acetaminophen 200 mg/kg/day alone, read-out: Percent Inhibition of Bone Degeneration ± S.E.), 12.6 ± 6.5%. The inhibition at 800 mg/kg in assay [1] (setting [3]) stood at 75.3 ± 3.9%; in assay [1] (setting [4]), 67.8 ± 5.7%; in assay [2] (Rattus norvegicus, Acetaminophen 800 mg/kg/day alone, read-out: Percent Inhibition of Bone Degeneration ± S.E.), 32.9 ± 3.4%. The ED50 in assay [1] (Rattus norvegicus, po, 672 h, drug given alone per os, Day 28, read-out: ED50 Values and 95 Percent C.L.) is 576 mg/kg; in assay [2] (Rattus norvegicus), 1670 mg/kg. Besides, in assay [1] (Rattus norvegicus, given alone, statistically significant difference (p<0.05) from saline treated controls, read-out: minimum effective dose (MED)), the minimal effective dose came to 320 mg/kg/day. In addition, the “Percent Inhibition ± S.E. (Day 28)” value stood at 2.7 ±17.4% in assay [1] (Table VII, Dose of Acetaminophen 100 alone, Day 28); 6.6 ± 11.4% in assay [1] (Table VII, Dose of Acetaminophen 200 alone, Day 28); 31.6 ± 6.1% in assay [1] (Table VII, Dose of Acetaminophen 400 alone, Day 28). The “dose of acetaminophen required to suppress the tolmetin ED50 by 50 percent” value in assay [1] (acetaminophen given with tolmetin) is given as 35.3 (13.4-81.3) mg/kg/day.
On to `CC(=O)Oc1ccccc1C(=O)O` [Aspirin, acetylsalicylic acid], for which, in assay [1] (Aspirin given in combination with tolmetin), the “dose of Aspirin required to suppress the tolmetin ED50 by 50 percent” value was 83.6 (60.5 - 101) mg/kg/day. Also, the inhibition at 25 mg/kg in assay [1] (Rattus norvegicus, 672 h, Aspirin 25 mg/kg/day alone, Day 28, read-out: Percent Inhibition ± S.E. (Day 28)) is 16.4 ± 11.4%; in assay [2] (Rattus norvegicus, bone degeneration, Aspirin 25 mg/kg/day alone, read-out: Percent Inhibition ± S. E.), 15.2 ± 12.6%. Also, the inhibition at 75 mg/kg amounted to 39.6 ± 3.6% in assay [1] (setting [5]); 4.1 ± 14.4% in assay [1] (setting [6]); 29.5 ± 5.6% in assay [2] (Rattus norvegicus, bone degeneration, Aspirin 75 mg/kg/day alone, read-out: Percent Inhibition ± S. E.). In addition, the inhibition at 100 mg/kg in assay [1] (Rattus norvegicus, 672 h, Aspirin 100 mg/kg/day alone, Day 28, read-out: Percent Inhibition ± S.E. (Day 28)) was determined as 28.3 ± 8.2%; in assay [2] (Rattus norvegicus, bone degeneration, Aspirin 100 mg/kg/day alone, read-out: Percent Inhibition ± S. E.) it was 28.3 ± 8.2%. In addition, the inhibition at 150 mg/kg in assay [1] (setting [5]) came out at 34.2 ± 6%; in assay [1] (setting [6]) it was 33.2 ± 7.6%; in assay [2] (Rattus norvegicus, bone degeneration, Aspirin 150 mg/kg/day alone, read-out: Percent Inhibition ± S. E.) it was 22.9 ± 3.1%. In addition, the inhibition at 300 mg/kg was found to be 66.2 ± 6.3% in assay [1] (setting [5]); 28.9 ± 9.4% in assay [1] (setting [6]); 59.9 ± 5.4% in assay [2] (Rattus norvegicus, bone degeneration, Aspirin 300 mg/kg/day alone, read-out: Percent Inhibition ± S. E.). The ED50 in assay [1] (Rattus norvegicus, aspirin alone, data from several similar experiments pooled, read-out: ED50 and its 95 percent C.L.) worked out at 322 mg/kg; in assay [2] (Rattus norvegicus), 382 mg/kg. Besides, in assay [2] (bone degeneration, Aspirin 25 mg/kg/day alone), the “Percent Inhibition ± S. E.” value stood at 20.1 ± 5.2%.
